Test results: patent publication US9504663B2, “Composition for the treatment of cystic fibrosis” (SciPharm SaRL, priority 2011, dated 2016)
“Also recorded” adds a separate entry of the source.

Legend:
IB3-1 cells [1] = test: Treprostinil-induced [3H]cAMP accumulation in IB3-1 cells with or without PDE inhibitors; type: cell-based, human; conditions: for accumulation of cAMP with PDE3 inhibitors: in experiments
Protocol: IB3-1 cells were plated on 6 well-plates (0.2*10^6 cells/well in FIG. 1; 0.4*10^6 cells in FIG. 2) in complete growth medium (LHC-8+5% FCS). The following day, the adenine nucleotide pool was metabolically labeled by incubation with [3H]adenine (1 μCi/well) in Dulbecco's Modified Eagle Medium (DMEM) containing adenosine deaminase (1 unit/ml) for 4 h. Thereafter the medium was replaced with fresh medium; the cells were stimulated by sole addition of Treprostinil (in logarithmically spaced concentrations ranging from 0.1 to 30 μM) or of Treprostinil in combination with the indicated concentrations of PDE-inhibitors. After an incubation of 30 min, the cells were lysed by the addition of perchloric acid. The formation of [3H]cAMP was determined by sequential chromatography on Dowex 50WX-4 and neutral alumina columns followed by liquid scintillation counting of the eluate. The assay was performed in triplicate. IB3-1 cells were seeded onto PDL-coated wells of 6-well plates (2 to 2.5*10^5 cells/well) in complete growth medium (LHC-8+5% FCS). On the following day, the cellular adenine nucleotide pool was metabolically labelled by incubation with [^3H]adenine (1 μCi/well) in Dulbecco's Modified Eagle Medium (DMEM) in the presence of adenosine deaminase (5 μg/ml) for 4 h. Subsequently, the medium was replaced with fresh DMEM and the formation of cAMP was stimulated by addition of 5 μM forskolin, a direct activator of the adenylyl cyclase, or 10 μM treprostinil in the absence and presence of different concentrations of the following phosphodiesterase (PDE) inhibitors: ibudilast (0.3-1000 μM), Ro-20-1724 (0.03-300 μM), roflumilast (1 nM-10 μM), dipyridamole (0.01-100 μM), aminone (1, 10, 100 μM), anagrelide (1, 10, 100 μM), enoximone (1, 10, 100 μM), milrinone (1, 10, 100 μM) and cilostazol (0.1 to 100 μM) for 20 min at 37° C. […] The formation of [^3H]cAMP was quantified by liquid scintillation counting.

[2] = aerosolised; patient with cystic fibrosis and secondary pulmonary hypertension; cited from earlier work
IB3-1 cells [3] = test: Forskolin-triggered [3H]cAMP accumulation in IB3-1 cells with PDE inhibitors; type: cell-based, human; conditions: 5 μM forskolin
Protocol: IB3-1 cells were seeded onto PDL-coated wells of 6-well plates (2 to 2.5*10^5 cells/well) in complete growth medium (LHC-8+5% FCS). On the following day, the cellular adenine nucleotide pool was metabolically labelled by incubation with [^3H]adenine (1 μCi/well) in Dulbecco's Modified Eagle Medium (DMEM) in the presence of adenosine deaminase (5 μg/ml) for 4 h. Subsequently, the medium was replaced with fresh DMEM and the formation of cAMP was stimulated by addition of 5 μM forskolin, a direct activator of the adenylyl cyclase, or 10 μM treprostinil in the absence and presence of different concentrations of the following phosphodiesterase (PDE) inhibitors: ibudilast (0.3-1000 μM), Ro-20-1724 (0.03-300 μM), roflumilast (1 nM-10 μM), dipyridamole (0.01-100 μM), aminone (1, 10, 100 μM), anagrelide (1, 10, 100 μM), enoximone (1, 10, 100 μM), milrinone (1, 10, 100 μM) and cilostazol (0.1 to 100 μM) for 20 min at 37° C. In some instances, the effect of these inhibitors on basal cAMP accumulation was examined by incubating cells in the absence of any additional stimulus with increasing concentrations of PDE-inhibitors (i.e., dipyridamole, ibudilast and Ro-20-1724 at 1, 10 and 100 μM; roflumilast at and 0.1, 1 and 10 μM of Roflumilast). Concentration-response curves for treprostinil were obtained by adding treprostinil (0.1 to 30 μM) alone or in combination with 100 μM Ro-20-1724, 100 μM ibudilast or 5 μM roflumilast. The reaction performed in triplicate was stopped by adding 2.5% perchloric acid together with 0.1 mM (unlabelled) cAMP. [^3H]cAMP was isolated by sequential chromatography on Dowex 50W-X4 and neutral alumina columns. The formation of [^3H]cAMP was quantified by liquid scintillation counting.

[4] = system: cystic fibrosis transmembrane conductance regulator/Cl- channel (CFTR); test: Whole cell patch clamp of treprostinil-induced Cl- currents through CFTR, Example 3; type: cell-based, human; conditions: for effect on treprostinil-induced CFTR current of adding PDE4 inhibitor: added on top of treprostinil
Protocol: The following human bronchial epithelial cell lines were obtained through ATCC: BEAS-2B (ATCC CRL-9609), NuLi-1 (ATCC CRL-4011), IB3-1 (ATCC CRL-2777), CuFi-1 (ATCC CRL-4013). Cells were propagated using the culture conditions outlined in the ATCC recommendations, e.g., I3B-1 cells were maintained on dishes coated with fibronectin (10 μg/m) rat collagen I (30 μg/ml) and BSA 10 μg/mL) in LHC-8 medium (Gibco) containing 5% fetal calf serum (FCS) at 37° C. in a 5% CO2 humified atmosphere. BEAS-2B cells were maintained at 37° C. in a 5% CO2 humified atmosphere on dishes precoated with collagen IV (60 μg/ml in 0.25% acetic acid) in BEGM medium (Lonza); the GA-1000 (gentamycin-amphotericin B mix) provided with the BEGM kit was not added to the medium. The level of endogenous expression of CFTR was too low to obtain a reliable signal. Accordingly, BEAS-2B cells were transiently transfected with a plasmid driving the expression of human GFP-tagged wild type CFTR by using Lipofectamine Plus® (Invitrogen) according to the instructions of the manufacturer. Cells expressing this GFP-tagged CFTR were identified by fluorescence microscopy and subjected to patch clamp recordings as outlined below. The whole cell patch clamp technique was used for current recordings performed at 22±1.5° C. using an Axoclamp 200B patch clamp amplifier (Axon Instruments). Pipettes had resistances between 1 and 2 MO when filled with the recording pipette solution (composition: 110 mM CsCl, 5 mM EGTA, 2 mM MgCl2, 1 mM K2.ATP, 10 mM Hepes, pH adjusted to 7.2 with CsOH). Voltage-clamp protocols and data acquisition were performed with […] 6.0 software (Axon Instruments). Data were low-pass filtered at 2 kHz (-3 dB) and digitized at 10-20 kHz. Cells were continuously superfused with external solution (composition: 145 mM NaCl, 4.5 mM KCl, 2 mM CaCl2, 1 mM MgCl2, 5 mM glucose, 10 mM Hepes, pH adjusted to 7.4 with NaOH). When indicated, the external solution contained Treprostinil (10 μM) or forskolin (5 μM), switching between solutions was achieved by electronically controlled pressure valves.

CFTR-wt = test: Whole cell patch clamp of Cl- current in IB3-1 cells transiently expressing GFP-tagged wild type CFTR; type: cell-based, human
Protocol: The whole cell patch clamp technique was used for current recordings performed at 22±1.5° C. using an Axoclamp 200B patch clamp amplifier (Axon Instruments). Pipettes had resistances between 1 and 2 MΩ when filled with the recording pipette solution (composition: 110 mM CsCl, 5 mM EGTA, 2 mM MgCl2, 1 mM K2.ATP, 10 mM Hepes, pH adjusted to 7.2 with CsOH). […] Data were low-pass filtered at 2 kHz (-3 dB) and digitized at 10-20 kHz. Cells were continuously superfused with external solution (composition: 145 mM NaCl, 4.5 mM KCl, 2 mM CaCl2, 1 mM MgCl2, 5 mM glucose, 10 mM Hepes, pH adjusted to 7.4 with NaOH). When indicated, the external solution contained Treprostinil (10 μM) or forskolin (5 μM), switching between solutions was achieved by electronically controlled pressure valves. IB3-1 cells were grown on dishes (Nunc, 3.5 cm diameter) covered with fibronectin (10 μg/mL) rat collagen I (30 μg/mL) and BSA 10 μg/mL) in LHC-8 medium (Gibco) containing 5% fetal calf serum (FCS). Cells were transiently transfected with a plasmid driving the expression of human GFP-tagged wild type CFTR by using Lipofectamine Plus® (Invitrogen) according to the instructions of the manufacturer. […] A transiently transfected IB3-1 cell expressing GFP-tagged wild type CFTR was selected under fluorescent light and clamped to a holding potential at -40 mV. Depolarization was induced by a voltage step to +60 mV for 50 ms and the current amplitude was recorded. Wash-in of Treprostinil (10 μM final concentration, TP) was initiated at the time point 50 s and terminated at 125 s. Forskolin was washed in at 275 s and was removed at 375 s.

rabbit erythrocytes = conditions: cited from earlier work
human erythrocytes = conditions: cited from earlier work

## O=C1CN2Cc3c(ccc(Cl)c3Cl)N=C2N1 [Anagrelide]
IB3-1 cells [1]
  accumulation of cAMP with PDE3 inhibitors: did not induce any accumulation of cAMP

## O=C1CCc2cc(OCCCCc3nnnn3C3CCCCC3)ccc2N1 [Cilostazol]
IB3-1 cells [1]
  accumulation of cAMP with PDE3 inhibitors: did not induce any accumulation of cAMP

## CC#CCC(C)[C@H](O)/C=C/[C@@H]1[C@H]2C/C(=C/CCCC(=O)O)C[C@H]2C[C@H]1O (stereo partly drawn) [Iloprost, 5-{(E)-(1S,5S,6R,7R)-7-hydroxy-6-[(E)-(3S,4RS)-3-hydroxy-4-methyl-1-octen-6-inyl]-bi-cyclo[3.3.0]octan-3-ylidene}pentanoic acid]
[2]
  pulmonary artery pressure: effective in lowering pulmonary artery pressure

## CCCCOc1cc(CC2CNC(=O)N2)ccc1OC (centres unmarked) [RO20-1724]
IB3-1 cells [3]
  enhancement of the cAMP accumulation triggered by forskolin: substantially enhanced
IB3-1 cells [3]; compared with roflumilast
  relative efficacy, forskolin-triggered cAMP accumulation: more effective than roflumilast
[4]
  effect on treprostinil-induced CFTR current of adding PDE4 inhibitor: additional increase of the current

## O=C(Nc1c(Cl)cncc1Cl)c1ccc(OC(F)F)c(OCC2CC2)c1 [Roflumilast, 3-(cyclopropylmethoxy)-N-(3,5-dichloropyridin-4-yl)-4-(difluoromethoxy)benzamide]
IB3-1 cells [3]
  enhancement of the cAMP accumulation triggered by forskolin: substantially enhanced
  relative potency as inhibitor, forskolin-triggered cAMP accumulation: most potent inhibitor
[4]
  effect on treprostinil-induced CFTR current of adding PDE4 inhibitor: additional increase of the current

## CCCCC[C@H](O)CC[C@@H]1[C@H]2Cc3cccc(OCC(=O)[O-])c3C[C@H]2C[C@H]1O.[Na+] [Treprostinil, (1R,2R,3aS,9aS)-[[2,3,3a,4,9,9a-hexahydro-2-hydroxy-1-[(3S)-3-hydroxyoctyl]-1H-benz[f]inden-5-yl]oxy]acetic acid monosodium salt]
CFTR-wt; 10 μM Treprostinil, depolarization from −40 mV holding potential to +60 mV, monosodium salt
  activation of the current (CFTR): robust activation; also recorded: can activate CFTR
CFTR-wt; 10 μM treprostinil
  time for current to decay to basal after washout: ~100 s
[4]; voltage jumps from −20 to −80 mV
  activation of CFTR (outward current): sustained activation of CFTR
Rabbit erythrocytes
  receptor-mediated cAMP synthesis and ATP release: stimulate
Human erythrocytes
  receptor-mediated cAMP synthesis and ATP release: stimulate

## OCCN(CCO)c1nc(N2CCCCC2)c2nc(N(CCO)CCO)nc(N3CCCCC3)c2n1 [dipyridamole]
IB3-1 cells [1]; 10 μM treprostinil
  efficacy in treprostinil-triggered cAMP accumulation: higher efficacy
IB3-1 cells [3]
  enhancement of the cAMP accumulation triggered by forskolin: substantially enhanced
  relative potency as inhibitor, forskolin-triggered cAMP accumulation: less potent inhibitor
